Drawing on US20240391895A1, “PYRIDAZINE-CONTAINING COMPOUND AND MEDICINAL USE THEREOF” (Tuojie Biotech (Shanghai) Co., Ltd., priority 2020, published 2024), this text covers EC50 for 40 compounds.

The target of the assay is T1, NLRP3 inflammasome (Homo sapiens, UniProt Q96P20).
T1 construct: Monocytes were then isolated from the PBMCs using a human pan-monocyte isolation kit; endogenous in cells; host or cells: primary human monocytes isolated from PBMCs of human blood
T1 sequence (Q96P20 whole entry): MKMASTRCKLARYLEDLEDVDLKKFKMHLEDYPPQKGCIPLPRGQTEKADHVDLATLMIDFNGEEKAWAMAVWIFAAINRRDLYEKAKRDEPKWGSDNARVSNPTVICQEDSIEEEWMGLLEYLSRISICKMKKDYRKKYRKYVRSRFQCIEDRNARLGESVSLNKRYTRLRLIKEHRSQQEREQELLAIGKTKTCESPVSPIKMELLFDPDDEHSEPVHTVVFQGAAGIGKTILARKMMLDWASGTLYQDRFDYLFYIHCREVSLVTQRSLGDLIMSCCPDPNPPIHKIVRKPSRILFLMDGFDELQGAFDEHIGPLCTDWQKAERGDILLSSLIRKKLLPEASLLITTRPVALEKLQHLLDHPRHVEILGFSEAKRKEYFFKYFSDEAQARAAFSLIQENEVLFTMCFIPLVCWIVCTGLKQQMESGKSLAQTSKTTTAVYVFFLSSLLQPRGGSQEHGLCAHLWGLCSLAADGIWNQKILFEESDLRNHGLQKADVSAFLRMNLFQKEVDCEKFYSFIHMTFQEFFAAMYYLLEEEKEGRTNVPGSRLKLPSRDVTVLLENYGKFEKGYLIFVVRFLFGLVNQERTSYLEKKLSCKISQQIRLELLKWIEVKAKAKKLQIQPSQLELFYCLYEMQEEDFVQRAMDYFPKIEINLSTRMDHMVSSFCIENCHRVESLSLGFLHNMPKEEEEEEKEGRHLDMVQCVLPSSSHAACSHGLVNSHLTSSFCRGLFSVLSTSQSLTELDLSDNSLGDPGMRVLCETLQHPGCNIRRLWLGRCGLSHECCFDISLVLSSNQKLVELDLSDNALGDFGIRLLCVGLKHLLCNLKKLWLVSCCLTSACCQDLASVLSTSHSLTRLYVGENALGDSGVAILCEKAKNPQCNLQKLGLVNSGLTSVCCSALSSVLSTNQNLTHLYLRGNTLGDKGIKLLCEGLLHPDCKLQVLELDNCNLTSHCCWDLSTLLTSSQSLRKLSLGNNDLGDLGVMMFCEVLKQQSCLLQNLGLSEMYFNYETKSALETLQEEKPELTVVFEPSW
Briefly: Inhibitory activity against NLRP3 inflammasome in human monocytes (IL-1b ELISA). The class given is cell-based. As to conditions: human monocytes from PBMCs; compound 0.5 h, LPS 100 ng/mL 3.5 h, ATP 5 mM 45 min; IL-1b in supernatant by ELISA; (n = 2) cells are means of n tests; read-out: IL-1β inhibition (EC50)/nM. On the procedure: Assays for Inhibitory Activity Against NLRP3 Inflammasome in Human Monocytes
Day 1: PBMCs were separated from human blood by density gradient centrifugation and washed twice with PBS containing 2% FBS (centrifuged at 300 g for 8 min). Monocytes were then isolated from the PBMCs using a human pan-monocyte isolation kit and an LS column. The cells were stained with CD14-FITC at 4° C. for 30 min, and FACS was run on BD FACS Verse to analyze the purity of the pan-monocytes. The cells were counted, and the cell density was adjusted to 2.5×10^5 cells/mL. The cells were seeded into a 96-well plate at 2.5×10^4 monocytes/[…] suspension/well. The plate was incubated overnight at 37° C. in 5% CO2.
Day 2: Test compounds were pre-titrated so that all titration points, including the DMSO control well, contained 0.1% DMSO. […] At the end of the 3.5 hours' incubation, the cells were stimulated (by adding […] of 40 mM ATP (the final concentration would be 5 mM) to treat the cells for 45 min). […] of supernatant was transferred to a new plate and stored at […]
Day 3: The supernatant solution was 20-fold diluted for human monocyte IL-1b ELISA according to the manufacturer's instructions.
Days 3-4: ELISA experiment • 1) Day 3: A capture antibody (diluted with coating buffer) was added to the plate at […]. The plate was sealed and incubated overnight at 4° C. • 2) Day 4: The liquids in the wells were pipetted off, and the plate was washed 3 times with wash buffer, 300 μL/≥each time. After the last wash, the plate was inverted and blotted dry with absorbent paper to remove any residual buffer.
3) A test dilution was added to the plate at ≥200 μL/well. The plate was incubated at room temperature for 1 h. • 4) The plate was blotted dry/washed as in step 2. • 5) Standard and sample dilutions were prepared with the test dilution. • 6) Each standard, sample and control was added to a corresponding well at […]. The plate was sealed and incubated at room temperature for 2 h. • 7) The plate was blotted dry/washed as in step 2, except that it was washed 5 times. • 8) The assay antibody was diluted with the test dilution and added to wells at […]/well. • 9) The plate was sealed and incubated at room temperature for 1 h. • 10) The plate was blotted dry/washed as in step 2, except that it was washed 5 times. • 11) The enzyme reagent was diluted with the test dilution and added to wells at […]/well. The plate was sealed and incubated at room temperature for 30 min. • 12) The plate was blotted dry/washed, and the step of soaking for 30 s-1 min was used. The plate was washed 7 times in total. • 13) A substrate solution was added at […]/well. The plate (without plate sealant) was incubated at room temperature in the dark for 30 min. • 14) A stop solution was added at […]. • 15) The absorbance at 450 nm was read using the instrument Envision within 30 min of stopping the reaction. If a wavelength correction was available, the absorbance at 570 nm would be subtracted from the absorbance at 450 nm.
Background: An ELISA detects its analyte on a solid surface through an enzyme-linked reagent.
Consider `Cc1cc(N[C@@H]2CCCN(C)C2)nnc1-c1ccc(SC(F)(F)F)cc1O` (racemic) [Compound 11, rac-(R2-(4-Methyl-6-((1-methylpiperidin-3-yl)amino)pyridazin-3-yl)-5-( (trifluoromethyl)thio)phenol], for which the EC50 amounted to 2.47 nM. In the case of `OCCN1CCC[C@@H](Nc2nnc(-c3ccc(C(F)(F)F)cc3O)c3c2CCCC3)C1` (racemic) [Compound 19, rac-(R)-2-(4-(1-(2-Hydroxyethyl)piperidin-3-yl)amino)-5,6,7,8-tetrahydrophthalazin-1-yl)-5-(trifluoromethyl)phenol] it was 4.99 nM; in that of `CN1CCC[C@@H](Nc2nnc(-c3c(O)cccc3F)c3c2CCC3)C1` (racemic) [Compound 20, rac-3-Fluoro-2-(4-((R)-1-methylpiperidin-3-yl)amino)-6,7-dihydro-5H-cyclopenta[d]pyridazin-1-yl)phenol], 1.23 nM. To `OCCN1CCC[C@@H](Nc2nnc(-c3ccc(C(F)(F)F)cc3O)c3c2COC3)C1` (racemic) [Compound 32, rac-(R)-2-(4-(1-(2-Hydroxyethyl)piperidin-3-yl)amino)-5,7-dihydrofuro[3,4-d]pyridazin-1-yl)-5-(trifluoromethyl)phenol] belongs 0.71 nM; to `Cc1cc(N[C@@H]2CCCN(CCO)C2)nnc1-c1ccc(C2CC2)cc1O` (racemic) [Compound 36, rac-(R)-5-Cyclopropyl-2-(6-((1-(2-hydroxyethyl)piperidin-3-yl)amino)-4-methylpyridazin-3-yl)phenol], 127 nM; to `Cc1cc(N[C@@H]2CCCN(C)C2)nnc1-c1ccc2c(c1O)CCC2` [Compound 4, (R)-5-(4-Methyl-6-((1-methylpiperidin-3-yl)amino)pyridazin-3-yl)-2,3-dihydro-1H-inden-4-ol], 1.91 nM. In the case of `Cc1cc(N[C@@H]2CCCN(C)C2)nnc1-c1cc2ccccc2cc1O` [Compound 5, (R)-3-(4-Methyl-6-((1-methylpiperidin-3-yl)amino)pyridazin-3-yl)naphthalen-2-ol] it was 41.8 nM; in that of `Cc1cc(N[C@@H]2CCCN(C)C2)nnc1-c1cc2c(cc1O)CCC2` [Compound 6, (R)-6-(4-Methyl-6-((1-methylpiperidin-3-yl)amino)pyridazin-3-yl)-2,3-dihydro-1H-inden-5-ol], 18.7 nM; in that of `Cc1cc(N[C@@H]2CCCN(C)C2)nnc1-c1c(O)ccc2c1CCC2` [Compound 7], 22.6 nM. On to `Cc1cc(N[C@@H]2CCCN(C)C2)nnc1-c1ccc(C(F)(F)F)cc1C(F)F` [Compound 8, (R)-6-(2-(Difluoromethyl)-4-(trifluoromethyl)phenyl)-5-methyl-N-(1-methylpiperidin-3-yl)pyridazin-3-amine], for which the EC50 was determined as 4.31 nM.

In the case of `Cc1cc(N[C@@H]2CCCN(C)C2)nnc1-c1cc2ccccc2cc1O` [Compound 9, (R)-3-(4-Methyl-6-((1-methylpiperidin-3-yl)amino)pyridazin-3-yl)naphthalen-2-ol], the EC50 came to 41.8 nM. `CN1CCC[C@@H](Nc2ccc(-c3c(O)ccc4ccccc34)nn2)C1` [Compound 10, (R)-1-(6-((1-Methylpiperidin-3-yl)amino)pyridazin-3-yl)naphthalen-2-ol]: the EC50 worked out at 48.2 nM.

Turning to `Cc1cc(N[C@@H]2CCCN(C)C2)nnc1-c1ccncc1O` [Compound 13, (R)-4-(4-Methyl-6-((1-methylpiperidin-3-yl)amino)pyridazin-3-yl)pyridin-3-ol], the EC50 came out at 129 nM. To `Cc1cc(N[C@H]2C[C@@](C)(O)C2)nnc1-c1ccc2c(c1O)CCC2` [Compound 14] belongs 2.38 nM; to `C[C@]1(O)C[C@@H](Nc2nnc(-c3ccc(C(F)(F)F)cc3O)c3ccccc23)C1` [Compound 15], 4.25 nM.

On to `Cc1cc(N[C@@H]2CCCN(C)C2)nnc1-c1c(O)ccc2c1CCC2` [Compound 17], for which the EC50 came to 14.4 nM. In the case of `Cc1c(N[C@H]2C[C@@](C)(O)C2)nnc(-c2ccc3c(c2O)CCC3)c1C` [Compound 21] it was 4.62 nM; in that of `C[C@]1(O)C[C@@H](Nc2nnc(-c3ccc(C(F)(F)F)cc3O)c3ncccc23)C1` [Compound 22], 35.5 nM. In the case of `C[C@]1(O)C[C@@H](Nc2nnc(-c3ccc(C(F)(F)F)cc3O)c3cccnc23)C1` [Compound 23] it was 2.51 nM; in that of `C[C@]1(O)C[C@@H](Nc2nnc(-c3ccc(C(F)(F)F)cc3O)c3ccncc23)C1` [Compound 24], 0.68 nM; in that of `C[C@]1(O)C[C@@H](Nc2nnc(-c3ccc(C(F)(F)F)cc3O)c3cnccc23)C1` [Compound 25], 12.8 nM. To `Cc1cc(N[C@@H]2CCCN(C)C2)nnc1-c1ccc2c(c1O)CCCC2` [Compound 27] belongs 4.75 nM; to `Cc1cc(N[C@H]2C[C@@](C)(O)C2)nnc1-c1ccc(C2CC2)cc1O` [Compound 28], 17.4 nM. Consider `Cc1c(N[C@H]2C[C@@](C)(O)C2)nnc(-c2ccc(C3CC3)cc2O)c1C` [Compound 29], for which the EC50 is 37.2 nM. To `C[C@]1(O)C[C@@H](Nc2nnc(-c3ccc(C4CC4)cc3O)c3ccccc23)C1` [Compound 30] belongs 13.4 nM; to `C[C@]1(O)C[C@@H](Nc2nnc(-c3ccc4c(c3O)CCC4)c3ccccc23)C1` [Compound 31], 1.08 nM.

As for `C[C@]1(O)C[C@@H](Nc2nnc(-c3c(O)cc(C(F)(F)F)cc3F)c3ccncc23)C1` [Compound 33], the EC50 came out at 22 nM. To `C[C@]1(O)C[C@@H](Nc2nnc(-c3c(O)cc(C(F)(F)F)cc3F)c3cnccc23)C1` [Compound 34] belongs 27 nM; to `CN1CCC[C@@H](Nc2nnc(-c3c(O)cc(C(F)(F)F)cc3F)c3c2COC3)C1` [Compound 35], 1.4 nM. To `Cc1cc(N[C@H]2C[C@@](C)(O)C2)nnc1-c1cc(F)c2c(c1O)CCC2` [Compound 37] belongs 60 nM.

In the case of `C[C@]1(O)C[C@@H](Nc2nnc(-c3ccc4c(c3O)CCC4)c3cccnc23)C1` [Compound 38], the EC50 came to 3 nM.

Turning to `C[C@]1(O)C[C@@H](Nc2nnc(-c3ccc4c(c3O)CCC4)c3ccncc23)C1` [Compound 39], the EC50 was found to be 1 nM.

Take `C[C@]1(O)C[C@@H](Nc2nnc(-c3ccc4c(c3O)CCC4)c3cnccc23)C1` [Compound 40]: the EC50 was 1.1 nM. In the case of `C[C@]1(O)C[C@@H](Nc2nnc(-c3ccc(C4CC4)cc3O)c3ccncc23)C1` [Compound 41] it was 27 nM; in that of `C[C@]1(O)C[C@@H](Nc2nnc(-c3ccc(C(F)(F)F)cc3O)c3c2COCC3)C1` [Compound 42], 20 nM; in that of `C[C@]1(O)C[C@@H](Nc2nnc(-c3ccc(C(F)(F)F)cc3O)c3c2CCOC3)C1` [Compound 43], 20 nM. To `C[C@]1(O)C[C@@H](Nc2nnc(-c3c(O)cc(C(F)(F)F)cc3F)c3ccccc23)C1` [Compound 44] belongs 24 nM; to `Cc1cc(C(F)(F)F)cc(O)c1-c1nnc(N[C@H]2C[C@@](C)(O)C2)c2cnccc12` [Compound 45], 4.9 nM; to `Cc1cc(C(F)(F)F)cc(O)c1-c1nnc(N[C@H]2C[C@@](C)(O)C2)c2ccccc12` [Compound 46], 10.1 nM. To `Cc1cc(C(F)(F)F)cc(O)c1-c1nnc(N[C@@H]2CCCN(C)C2)c2c1COC2` [Compound 47] belongs 32.2 nM.
